Test results: PMC9909341, “TLQP-21 is a low potency partial C3aR activator on human primary macrophages” (Frontiers in Immunology, 2023)
pEC50: −log10 of the molar value.

Assays:
[1] = tested on: HMDM (endogenous human C3aR); assay type: cell-based; details: for pEC50: primary human macrophages, 50,000/well, AlphaLISA p-ERK1/2, n = 4 donors, read-out: EC50 (pERK1/2), HMDM
Text: HMDMs were generated and cultured as previously described ([20]), with experiments approved by The University of Queensland Human Research Ethics Committee. Briefly, human buffy coat blood from anonymous healthy donors was obtained through the Australian Red Cross Blood Service (Brisbane, Australia). Human CD14+ monocytes were isolated from blood using Lymphoprep density centrifugation (STEMCELL, Melbourne, Australia) followed by CD14+ MACS magnetic bead separation (Miltenyi Biotec, Sydney, Australia). The isolated monocytes were differentiated for 7 days in Iscove’s Modified Dulbecco’s Medium supplemented with 10% FBS, 100 IU/ml penicillin, 100 μg/ml streptomycin and 15 ng/ml recombinant human macrophage colony stimulating factor (BioLegend, San Diego, USA) on 10 mm square dishes (Bio-strategy, Brisbane, Australia). Non-adherent cells were removed by washing with DPBS, and the adherent differentiated HMDMs were harvested by gentle scraping.
(§1) Ligand-induced ERK1/2 phosphorylation was assessed using the AlphaLISA Surefire Ultra p-ERK1/2 (Thr202/Tyr204) kit (PerkinElmer, Melbourne, Australia) following the manufacturer’s protocol as previously described ([18], [20], [22]). Briefly, CHO-K1, CHO-C3aR, CHO-C5aR1, HMDMs (50,000/well) or BMDMs (90,000/well) were seeded in tissue culture-treated 96-well plates (Corning, Corning, USA) for 24 h and serum-starved overnight. All ligand dilutions were prepared in serum-free medium (SFM) containing 0.1% BSA. For inhibition assays, cells were pre-treated with the following ligands (5 µM SB290157, or respective concentrations of hC3a, mC3a, hC5a, hTLQP-21, and mTLQP-21) or the solvent-only control for 30 min before agonist (hC3a, hTLQP-21 and mTLQP-21) addition. The concentration and identity of the ligands are described in detail in the figure legends. For stimulation, cells were treated with ligands at the indicated concentrations for 10 min at RT and then immediately lysed using AlphaLISA lysis buffer on a microplate shaker (450 rpm, 10 min). For the detection of phospho-ERK1/2 content, cell lysate (5 μL/well) was transferred to a 384-well ProxiPlate (PerkinElmer, Melbourne, Australia) and added to the donor and acceptor reaction mix (2.5 μL/well, respectively), followed by a 2-h incubation at RT in the dark. On a Tecan Spark 20M (Tecan, Männedorf, Switzerland), the plate was measured using standard AlphaLISA settings.
(§2) All experiments were conducted in triplicates and repeated on three separate occasions unless otherwise specified. Data was analysed using GraphPad software (Prism 9.1). Data from each individual repeat was normalised accordingly (as specified in the figure legends) before being combined and expressed as mean ± standard error of the mean (S.E.M.) unless otherwise described. For all dose-response studies, logarithmic concentration-response curves were plotted using combined data and analysed to determine the respective potency values. Statistical analysis was performed using two-way ANOVA with Dunnett’s post hoc analysis. Donor-matched comparisons were made for HMDM experiments. Differences were deemed significant when p < 0.05.
Figure 3 Agonistic and antagonistic activities of hTLQP-21 and mTLQP-21 in human monocyte-derived macrophages. Serum-starved HMDMs (50,000/well) were (A) stimulated with medium or respective ligands at the indicated concentrations for 10 min and then lysed, or (B) pre-treated with 5 µM SB290157 for 30 min prior to stimulation. (C) HMDMs were pre-treated with 10 μM hTLQP-21 or mTLQP-21 for 30 min before being stimulated with respective concentrations of human C3a. (D) HMDMs were pre-treated with 10 nM hC3a, 10 μM hTLQP-21 or mTLQP-21 for 30 min before being stimulated with the same concentrations of the above ligands for 10 min and then lysed. (E) HMDMs were pre-treated with 10 μM hTLQP-21 or mTLQP-21 for 30 min before being stimulated with respective concentrations of human C5a for 10 min and then lysed. […]

[2] = tested on: CHO-K1 cells (endogenous C3aR); test: phospho-ERK1/2 assay in non-transfected CHO-K1 cells; assay type: cell-based, Chinese hamster
Protocol: (§3) Cell lines for this study were cultured as previously described ([20]). Non-transfected CHO-K1 cells or CHO cells stably expressing the human C3aR (CHO-C3aR; Product # ES-730-C, PerkinElmer, Melbourne, Australia) were maintained in Ham’s F12 medium containing 10% foetal bovine serum (FBS), 100 IU/ml penicillin and 100 μg/ml streptomycin, with additional 400 μg/ml G418 (In vivoGen, San Diego, USA) added for CHO-C3aR cell culture. HEK293 cells were maintained in DMEM medium containing 10% FBS, 100 IU/ml penicillin and 100 μg/ml streptomycin. All cell lines were maintained in T175 flasks (37°C, 5% CO2) and subcultured at 80-90% confluency using 0.05% trypsin-EDTA in DPBS.
Ligand-induced ERK1/2 phosphorylation was assessed using the AlphaLISA Surefire Ultra p-ERK1/2 (Thr202/Tyr204) kit (PerkinElmer, Melbourne, Australia) following the manufacturer’s protocol as previously described ([18], [20], [22]). Briefly, CHO-K1, CHO-C3aR, CHO-C5aR1, HMDMs (50,000/well) or BMDMs (90,000/well) were seeded in tissue culture-treated 96-well plates (Corning, Corning, USA) for 24 h and serum-starved overnight. […] On a Tecan Spark 20M (Tecan, Männedorf, Switzerland), the plate was measured using standard AlphaLISA settings.
as §2, with “Statistical analysis was performed using two-way ANOVA with Dunnett’s post hoc analysis. Donor-matched comparisons were made for HMDM experiments. Differences were deemed significant when p < 0.05.” left out
Figure 1 hTLQP-2 and mTLQP-21 activate ERK signalling in CHO-K1 and CHO-C3aR cells. hTLQP-21, mTLQP-21 and plasma-derived human C3a were tested in (A) non-transfected CHO-K1 or (B) CHO cells stably expressing human C3aR. […] The phospho-ERK1/2 content in the lysate was measured and expressed as fold-baseline before being combined. […]

human C3aR = target: T1, human C3aR (Homo sapiens, UniProt Q16581); test: phospho-ERK1/2 assay in CHO-C3aR cells; assay type: cell-based; details: n = 3-4; for pEC50: CHO cells stably expressing human C3aR, serum-starved, AlphaLISA p-ERK1/2, combined data, read-out: EC50 (pERK1/2), CHO-C3aR
T1 sequence (Q16581 1-482): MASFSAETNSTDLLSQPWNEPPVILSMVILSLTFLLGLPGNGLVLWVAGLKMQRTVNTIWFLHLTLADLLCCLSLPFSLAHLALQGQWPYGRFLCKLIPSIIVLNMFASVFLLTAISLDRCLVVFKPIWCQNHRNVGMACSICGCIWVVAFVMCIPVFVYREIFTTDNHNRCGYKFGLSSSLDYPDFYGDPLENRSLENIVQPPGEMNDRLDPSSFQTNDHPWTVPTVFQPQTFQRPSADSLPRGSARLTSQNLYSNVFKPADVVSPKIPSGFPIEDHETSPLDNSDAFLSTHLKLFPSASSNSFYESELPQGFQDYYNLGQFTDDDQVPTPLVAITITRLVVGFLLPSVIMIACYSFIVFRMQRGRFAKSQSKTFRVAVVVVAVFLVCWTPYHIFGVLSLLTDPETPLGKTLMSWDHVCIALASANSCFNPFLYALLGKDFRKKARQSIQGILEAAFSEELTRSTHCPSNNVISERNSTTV
Protocol: as §3, §1, §2
Figure 1 hTLQP-2 and mTLQP-21 activate ERK signalling in CHO-K1 and CHO-C3aR cells. hTLQP-21, mTLQP-21 and plasma-derived human C3a were tested in (A) non-transfected CHO-K1 or (B) CHO cells stably expressing human C3aR. CHO cells were serum-starved overnight and then stimulated with various ligands for 10 min before being lysed. The phospho-ERK1/2 content in the lysate was measured and expressed as fold-baseline before being combined. The maximum relative pERK1/2 activity induced by each ligand is shown in (C). Data represent mean ± S.E.M. of triplicate measurements from 3-4 independent experiments (n = 3-4). Two-way ANOVA with Dunnett’s post hoc analysis. *P < 0.05, ***P < 0.001, ****P < 0.0001. Ligand treated versus medium treated cells for each cell line.

Substance | logEC50 ± SE (pERK1/2), HMDM ([1]; HMDM, 10 min stimulation at RT, n = 3-4) | pEC50 ([1]; 10 min stimulation at RT) | % C3a activity ± SE, HMDM ([1]; relative to hC3a, n = 3-4) [%] | maximum relative pERK1/2 activity, CHO-K1 ([2]; 10 min, Figure 1C, n = 3-4) [fold baseline] | relative efficacy of ERK signalling in CHO-K1 versus CHO-C3aR ([2]; fold lower than in CHO-C3aR cells) [fold] | maximum relative pERK1/2 activity, CHO-C3aR (human C3aR; 10 min, Figure 1C) [fold baseline] | pEC50 (human C3aR; 10 min stimulation at RT) | logEC50 ± SE (pERK1/2), CHO-C3aR (human C3aR; CHO-C3aR, 10 min stimulation at RT) | % C3a activity ± SE, CHO-C3aR (human C3aR; efficacy relative to hC3a, fold baseline normalised) [%] | ERK1/2 phosphorylation, CHO-K1 ([2]; 10 min stimulation at RT, n = 3-4)
C3a: Table 1 label: human C3a in CHO-C3aR and HMDM, recombinant mouse C3a in BMDM | -9.9 ± 0.1 | 9.96 | 100 ± 6.2 | 2.7 | 2.6 | 7.3 | 9.82 | -9.8 ± 0.1 | 100 ± 2.8 | –
hC3a: purified (plasma-derived) human C3a, purchased from Merck | – | 9.96 | – | – | – | – | 9.82 | – | – | significantly triggered ERK1/2 phosphorylation in CHO-K1 cells
